Measured values as given in patent US11844806B2 (Asamedic AS, priority 2017, dated 2023).

Key:
[1] = Dissolution of ASA on mixing with phosphate salt solution or water, shaken in the two component device; type: physicochemical
Protocol: (§1) The cap comprising the powder compartment and the cutting element was assembled with the container comprising the solution.
(§2) The cap was then turned down until the seal keeping the powder and the solution separately was broken by the cutting element. […] The device was then shaken until all ASA was dissolved.
(§3) The solution was then shaken until all ASA was dissolved. A light-yellow coloring of the solution was observed.
(§4) After releasing the ASA and sodium carbonate into the water, the solution was shaken until all ASA was dissolved.

[2] = pH of the solution after dissolution of ASA; type: physicochemical; conditions: for Measured pH of the solutions after dissolution of ASA: 300 mg ASA
Protocol: as §1, §2
Further aqueous solutions of salts of phosphoric acid were prepared. These phosphoric acid salt solutions were prepared in order to test the dissolution time of ASA at different final pH values i.e. the pH in the final ASA solution that are to be taken by the patient. Thus, the amount (mg) of the salt of phosphoric acid to be used was calculated based on the final pH to be obtained (theoretically pH).
as §3, §4

Time before ASA was dissolved ([1]; 300 mg ASA and 258-263 mg Na2CO3 released together into 15 ml pure water, test device, Example 7 (carbonate comparison)): approx. 120 sec.
Time in which ASA is dissolved in the Na2HPO4 solutions ([1]; 300 mg ASA, 15 ml, pH in the final solution set between approximately 7 to 8 (summary of table 2)): ≤ 25 s
Time in which ASA is dissolved in the Na3PO4.12H2O solution ([1]; 300 mg ASA, 15 ml, pH in the final solution set to approximately 7 (summary of table 3)): ≤ 25 s
Time until all ASA was dissolved ([1]; 300 mg crushed ASA and 1000 mg crushed Na2HPO4 released together into 15 ml pure water, test device, Example 3): ≤ 30 s
Time until all ASA was dissolved ([1]; 304 mg ASA and 610 mg Na3PO4 released at the same time into 15 ml pure water, Example 5): ≤ 30 s
300 mg ASA in 15 ml solution dissolved within 25 seconds ([1]; 422 mg (1.11 · 10^−3 mol) Na3PO4•12H2O in 15 ml, theoretical pH 7.2): yes
300 mg ASA in 15 ml solution dissolved within 25 seconds ([1]; 474 mg (3.34 · 10^−3 mol) Na2HPO4 in 15 ml, theoretical pH 7.2): Yes
300 mg ASA in 15 ml solution dissolved within 25 seconds ([1]; 950 mg (6.67 · 10^−3 mol) Na2HPO4 in 15 ml, theoretical pH 7.7): Yes
300 mg ASA in 15 ml solution dissolved within 25 seconds ([1]; 1730 mg (1.21 · 10^−2 mol) Na2HPO4 in 15 ml, theoretical pH 8.0): Yes
pH of the solutions after dissolution of ASA and the carbonate salt ([2]; 300 mg ASA and 258-263 mg Na2CO3 in 15 ml pure water, Example 7): 9.41-9.43
Measured pH of the solutions after dissolution of ASA ([2]; 422 mg Na3PO4•12H2O in 15 ml, theoretical pH 7.2): 7.6
Measured pH of the solutions after dissolution of ASA ([2]; 474 mg Na2HPO4 in 15 ml, theoretical pH 7.2): 7.0
Measured pH of the solutions after dissolution of ASA ([2]; 1730 mg Na2HPO4 in 15 ml, theoretical pH 8.0): 7.7
pH of the solution after dissolution of ASA and the hydrogen phosphate salt ([2]; 300 mg crushed ASA and 1000 mg crushed Na2HPO4 in 15 ml pure water, Example 3): 7
pH of the solution after dissolution of ASA and the phosphate salt ([2]; 304 mg ASA and 610 mg Na3PO4 in 15 ml pure water, Example 5): 10.72
Structure (SMILES): CC(=O)Oc1ccccc1C(=O)O [ASA, acetylsalicylic acid]
